Assay results: ChEMBL document CHEMBL1133203, “Synthesis of L-(+)-3-(3-hydroxy-4-pivaloyloxybenzyl)-2,5-diketomorpholine as potential prodrug of L-dopa” (Bioorg Med Chem Lett, 2000)
In brackets after ≈: the same amount, converted by molar mass.

Key:
[1] = Rate constant in chemical and enzymatic hydrolysis to form L-DOPA, in 80% human plasma; type: ADME, cell-free
[2] = Rate constant in chemical and enzymatic hydrolysis to form another compound (8)*, in 80% human plasma (experiment 1); type: ADME, cell-free
[3] = Rate constant in chemical and enzymatic hydrolysis to form another compound (8)*, in 80% human plasma (experiment 2); type: ADME, cell-free
[4] = Half-life in chemical and enzymatic hydrolysis, in 80% rat plasma; type: ADME
Rattus norvegicus = species: Rattus norvegicus; experiment: Rate constant in chemical and enzymatic hydrolysis, in 80% rat plasma; type: ADME
[5] = Rate constant in chemical and enzymatic hydrolysis, in buffer at pH 1.3; type: ADME
[6] = Rate constant in chemical and enzymatic hydrolysis, in buffer at pH 7.4; type: ADME
[7] = Partition coefficient is determined in octanol/buffer solution at pH 7.4; type: physicochemical
[8] = Aqueous solubility was evaluated; type: physicochemical; conditions: buffer
[9] = Half-life in chemical and enzymatic hydrolysis, in buffer at pH 1.3; type: ADME
[10] = Half-life in chemical and enzymatic hydrolysis, in buffer at pH 7.4; type: ADME

SMILES	K obs [1]	K obs [2]	K obs [3]	half-life [4]	K obs (Rattus norvegicus)	K obs [5]	K obs [6]	logD [7]	solubility [8]	half-life [9]	half-life [10]
O=C1COC(=O)[C@H](Cc2ccc(O)c(O)c2)N1	0.0047 min⁻¹										
CC(C)(C)C(=O)Oc1ccc(C[C@@H]2NC(=O)COC2=O)cc1O		0.019 min⁻¹	0.019 min⁻¹	2.7 min	0.29 min⁻¹	0.00022 min⁻¹	0.0075 min⁻¹	2.15	50 µg/mL (≈ 156 µM)	52.3 h	1.55 h
